From patent publication US9493455B2, “Azaindole derivatives as inhibitors of protein kinases” (ORIBASE PHARMA, priority 2012, dated 2016)

What was measured:
FGFR1 = biological target: T1, FGFR1 (Homo sapiens, UniProt P11362); assay: In vitro kinase assay (Z′-LYTE); assay type: biochemical; details: read-out: % of inhibition of the kinase compared to the control
T1 construct: purchased Invitrogen
Procedure, shortened: (§1)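 Z′-LYTE FRET peptide-cleavage assay, emission ratio after 400 nm excitation; compound tested at 100 nM in 1% DMSO final. Kinase buffer 50 mM HEPES pH 7.5, 0.01% BRIJ-35, 10 mM MgCl2, 1 mM EGTA, ATP at previously determined apparent Km; read as percent inhibition.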

SRC = biological target: T2, SRC (Homo sapiens, UniProt P12931); assay: In vitro kinase assay (Z′-LYTE); assay type: biochemical; details: read-out: % of inhibition of the kinase compared to the control
T2 construct: purchased Invitrogen
Procedure, shortened: as §1

EGFR (ErbB1) T790M L858R = biological target: T3, EGFR (ErbB1) T790M L858R (Homo sapiens, UniProt P00533, L858R/T790M); assay: In vitro kinase assay (Z′-LYTE); assay type: biochemical; details: read-out: % of inhibition of the kinase compared to the control
T3 construct: purchased Invitrogen
T3 sequence (P00533 25-1210 T790M/L858R): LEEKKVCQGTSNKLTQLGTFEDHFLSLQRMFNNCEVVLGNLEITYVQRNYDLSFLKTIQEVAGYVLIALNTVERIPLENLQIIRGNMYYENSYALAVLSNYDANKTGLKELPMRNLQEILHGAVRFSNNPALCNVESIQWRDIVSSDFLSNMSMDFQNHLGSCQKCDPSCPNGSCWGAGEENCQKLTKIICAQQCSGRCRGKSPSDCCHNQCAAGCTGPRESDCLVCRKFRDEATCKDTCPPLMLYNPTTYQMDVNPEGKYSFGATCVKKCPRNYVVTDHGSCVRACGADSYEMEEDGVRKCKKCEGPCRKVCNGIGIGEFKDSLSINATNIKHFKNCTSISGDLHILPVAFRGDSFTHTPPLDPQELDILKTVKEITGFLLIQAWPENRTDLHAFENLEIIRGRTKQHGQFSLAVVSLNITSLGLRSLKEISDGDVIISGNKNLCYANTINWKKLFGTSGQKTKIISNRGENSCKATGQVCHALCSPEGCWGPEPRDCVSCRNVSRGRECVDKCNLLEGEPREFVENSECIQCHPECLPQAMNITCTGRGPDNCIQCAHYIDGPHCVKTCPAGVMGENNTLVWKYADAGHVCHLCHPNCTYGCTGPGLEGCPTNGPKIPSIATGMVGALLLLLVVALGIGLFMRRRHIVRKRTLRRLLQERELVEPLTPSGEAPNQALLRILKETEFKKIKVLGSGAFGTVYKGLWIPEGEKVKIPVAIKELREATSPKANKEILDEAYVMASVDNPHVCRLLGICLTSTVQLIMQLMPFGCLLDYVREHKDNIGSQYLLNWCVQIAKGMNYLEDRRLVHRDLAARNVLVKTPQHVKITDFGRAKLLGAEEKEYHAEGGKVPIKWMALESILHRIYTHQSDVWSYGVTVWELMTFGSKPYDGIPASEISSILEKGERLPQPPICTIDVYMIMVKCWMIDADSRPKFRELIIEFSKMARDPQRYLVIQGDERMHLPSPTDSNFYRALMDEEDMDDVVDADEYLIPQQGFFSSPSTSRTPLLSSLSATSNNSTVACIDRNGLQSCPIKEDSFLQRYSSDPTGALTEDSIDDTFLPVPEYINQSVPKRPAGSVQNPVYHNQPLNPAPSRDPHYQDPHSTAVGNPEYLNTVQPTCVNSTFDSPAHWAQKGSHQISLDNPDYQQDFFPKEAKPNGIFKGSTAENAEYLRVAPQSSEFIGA
Procedure, shortened: as §1

BRAF = biological target: T4, BRAF (Homo sapiens, UniProt P15056); assay: In vitro kinase assay (Z′-LYTE); assay type: biochemical; details: compound 100 nM; ATP 100 μM; read-out: % of inhibition of the kinase compared to the control
T4 construct: purchased Invitrogen
T4 sequence (P15056 whole entry): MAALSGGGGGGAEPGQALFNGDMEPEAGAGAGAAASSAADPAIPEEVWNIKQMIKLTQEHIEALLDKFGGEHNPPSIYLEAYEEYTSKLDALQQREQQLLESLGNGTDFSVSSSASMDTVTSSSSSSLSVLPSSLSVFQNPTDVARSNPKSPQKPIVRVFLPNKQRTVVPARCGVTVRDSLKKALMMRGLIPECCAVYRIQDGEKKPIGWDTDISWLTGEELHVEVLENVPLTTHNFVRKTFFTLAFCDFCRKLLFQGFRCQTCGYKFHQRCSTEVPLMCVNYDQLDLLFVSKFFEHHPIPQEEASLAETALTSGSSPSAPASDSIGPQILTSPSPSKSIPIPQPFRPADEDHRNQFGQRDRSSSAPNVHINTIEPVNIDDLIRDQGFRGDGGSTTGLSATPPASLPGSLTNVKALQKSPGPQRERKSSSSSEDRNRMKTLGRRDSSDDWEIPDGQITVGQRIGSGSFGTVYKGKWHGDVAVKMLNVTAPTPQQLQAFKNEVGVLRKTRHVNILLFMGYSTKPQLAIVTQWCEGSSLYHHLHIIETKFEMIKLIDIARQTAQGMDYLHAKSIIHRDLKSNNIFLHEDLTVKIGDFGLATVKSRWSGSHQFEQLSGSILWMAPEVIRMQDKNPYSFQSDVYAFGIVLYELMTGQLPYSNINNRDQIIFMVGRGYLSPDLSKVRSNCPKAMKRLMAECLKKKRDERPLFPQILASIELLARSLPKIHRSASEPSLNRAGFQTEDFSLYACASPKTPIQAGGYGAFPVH
Procedure, shortened: as §1

VEGFR1 = biological target: T5, VEGFR1 (Homo sapiens, UniProt P17948); assay: In vitro kinase assay (Z′-LYTE); assay type: biochemical; details: read-out: % of inhibition of the kinase compared to the control
T5 construct: purchased Invitrogen
T5 sequence (P17948 27-1338): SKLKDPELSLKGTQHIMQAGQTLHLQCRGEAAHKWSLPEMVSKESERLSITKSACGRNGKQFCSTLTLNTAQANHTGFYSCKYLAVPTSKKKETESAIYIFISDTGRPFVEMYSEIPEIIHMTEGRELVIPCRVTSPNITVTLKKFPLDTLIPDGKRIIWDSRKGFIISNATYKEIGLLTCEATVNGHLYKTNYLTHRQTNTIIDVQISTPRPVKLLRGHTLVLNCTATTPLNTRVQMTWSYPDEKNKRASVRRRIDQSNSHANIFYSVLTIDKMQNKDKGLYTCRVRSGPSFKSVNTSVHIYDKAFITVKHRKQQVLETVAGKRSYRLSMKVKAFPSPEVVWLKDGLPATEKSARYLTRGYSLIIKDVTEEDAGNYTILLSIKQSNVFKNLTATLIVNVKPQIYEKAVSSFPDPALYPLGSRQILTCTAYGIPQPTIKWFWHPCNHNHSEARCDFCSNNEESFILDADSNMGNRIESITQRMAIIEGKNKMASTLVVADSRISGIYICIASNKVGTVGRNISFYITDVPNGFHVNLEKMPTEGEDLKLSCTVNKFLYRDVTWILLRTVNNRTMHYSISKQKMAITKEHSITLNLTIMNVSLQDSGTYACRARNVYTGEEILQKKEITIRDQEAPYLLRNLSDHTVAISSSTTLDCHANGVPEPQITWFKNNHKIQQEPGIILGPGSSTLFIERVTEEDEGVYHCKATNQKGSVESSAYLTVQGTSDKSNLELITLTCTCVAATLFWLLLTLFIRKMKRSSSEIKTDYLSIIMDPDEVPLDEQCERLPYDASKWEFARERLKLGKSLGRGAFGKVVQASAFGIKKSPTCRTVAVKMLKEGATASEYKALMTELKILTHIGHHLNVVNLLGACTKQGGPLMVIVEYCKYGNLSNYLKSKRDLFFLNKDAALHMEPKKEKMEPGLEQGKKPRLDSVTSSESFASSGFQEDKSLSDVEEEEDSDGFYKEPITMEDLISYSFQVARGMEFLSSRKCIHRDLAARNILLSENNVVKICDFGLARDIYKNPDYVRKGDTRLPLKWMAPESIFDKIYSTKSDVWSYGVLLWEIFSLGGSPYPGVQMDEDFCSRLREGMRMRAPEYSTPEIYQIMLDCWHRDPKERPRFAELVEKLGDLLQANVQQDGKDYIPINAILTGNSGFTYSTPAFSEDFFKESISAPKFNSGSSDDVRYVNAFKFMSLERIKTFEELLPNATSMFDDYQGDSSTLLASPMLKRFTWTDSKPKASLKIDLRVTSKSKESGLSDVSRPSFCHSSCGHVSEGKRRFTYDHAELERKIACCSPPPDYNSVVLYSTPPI
Procedure, shortened: as §1

PDGFRB = biological target: T6, PDGFRB (Homo sapiens, UniProt P09619); assay: In vitro kinase assay (Z′-LYTE); assay type: biochemical; details: read-out: % of inhibition of the kinase compared to the control
T6 construct: purchased Invitrogen
Procedure, shortened: as §1

PDGFRA (PDGFR alpha) = biological target: T7, PDGFRA (PDGFR alpha) (Homo sapiens, UniProt P16234); assay: In vitro kinase assay (Z′-LYTE); assay type: biochemical; details: read-out: % of inhibition of the kinase compared to the control
T7 construct: purchased Invitrogen
T7 sequence (P16234 24-1089): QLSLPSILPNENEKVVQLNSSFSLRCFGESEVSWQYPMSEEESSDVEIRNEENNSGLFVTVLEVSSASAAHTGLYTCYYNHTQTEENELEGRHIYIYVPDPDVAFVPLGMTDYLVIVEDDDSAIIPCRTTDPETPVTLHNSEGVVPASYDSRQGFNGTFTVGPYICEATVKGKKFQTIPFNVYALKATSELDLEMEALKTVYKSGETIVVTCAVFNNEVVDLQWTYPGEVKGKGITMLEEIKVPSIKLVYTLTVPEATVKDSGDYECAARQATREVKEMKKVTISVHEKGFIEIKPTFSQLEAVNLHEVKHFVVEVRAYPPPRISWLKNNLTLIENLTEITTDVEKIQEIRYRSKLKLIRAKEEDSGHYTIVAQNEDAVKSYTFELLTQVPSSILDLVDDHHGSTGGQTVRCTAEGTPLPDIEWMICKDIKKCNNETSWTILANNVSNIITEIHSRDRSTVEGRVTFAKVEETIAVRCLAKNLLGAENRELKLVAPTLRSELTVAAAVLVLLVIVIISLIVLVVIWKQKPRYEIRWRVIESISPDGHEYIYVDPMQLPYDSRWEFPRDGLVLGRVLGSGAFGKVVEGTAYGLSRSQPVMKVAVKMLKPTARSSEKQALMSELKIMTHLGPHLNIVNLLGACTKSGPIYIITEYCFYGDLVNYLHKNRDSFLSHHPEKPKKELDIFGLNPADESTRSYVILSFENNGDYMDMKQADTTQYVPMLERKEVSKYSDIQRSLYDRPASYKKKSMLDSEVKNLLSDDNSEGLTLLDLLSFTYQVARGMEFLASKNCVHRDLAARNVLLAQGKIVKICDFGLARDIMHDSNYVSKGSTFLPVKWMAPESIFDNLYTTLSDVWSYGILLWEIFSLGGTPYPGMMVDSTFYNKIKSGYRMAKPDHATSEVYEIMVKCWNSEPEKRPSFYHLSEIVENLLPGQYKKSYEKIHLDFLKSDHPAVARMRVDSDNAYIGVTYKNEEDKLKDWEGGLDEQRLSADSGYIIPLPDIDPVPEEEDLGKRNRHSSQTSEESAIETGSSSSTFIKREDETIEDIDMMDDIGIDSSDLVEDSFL
Procedure, shortened: as §1

KDR (VEGFR2) = biological target: T8, KDR (VEGFR2) (Homo sapiens, UniProt P35968); assay: In vitro kinase assay (Z′-LYTE); assay type: biochemical; details: read-out: % of inhibition of the kinase compared to the control
T8 construct: purchased Invitrogen
Procedure, shortened: as §1

ABL = biological target: T9, ABL (Homo sapiens, UniProt P00519); assay: In vitro kinase assay (Z′-LYTE); assay type: biochemical; details: read-out: % of inhibition of the kinase compared to the control
T9 construct: purchased Invitrogen

ABL T315I = biological target: T10, ABL T315I (Homo sapiens, UniProt P00519, T315I); assay: In vitro kinase assay (Z′-LYTE); assay type: biochemical; details: read-out: % of inhibition of the kinase compared to the control
T10 construct: purchased Invitrogen
Procedure, shortened: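 Percent inhibition is derived from a coupled-enzyme fluorescence format in which unphosphorylated FRET peptide is preferentially proteolysed. Compounds are screened once at 100 nM (10 μM against ABL T315I) in 1% DMSO, with ATP at its apparent Km.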

FGFR2 = biological target: T11, FGFR2 (Homo sapiens, UniProt P21802); assay: In vitro kinase assay (Z′-LYTE); assay type: biochemical; details: read-out: % of inhibition of the kinase compared to the control
T11 construct: purchased Invitrogen
T11 sequence (P21802 22-821): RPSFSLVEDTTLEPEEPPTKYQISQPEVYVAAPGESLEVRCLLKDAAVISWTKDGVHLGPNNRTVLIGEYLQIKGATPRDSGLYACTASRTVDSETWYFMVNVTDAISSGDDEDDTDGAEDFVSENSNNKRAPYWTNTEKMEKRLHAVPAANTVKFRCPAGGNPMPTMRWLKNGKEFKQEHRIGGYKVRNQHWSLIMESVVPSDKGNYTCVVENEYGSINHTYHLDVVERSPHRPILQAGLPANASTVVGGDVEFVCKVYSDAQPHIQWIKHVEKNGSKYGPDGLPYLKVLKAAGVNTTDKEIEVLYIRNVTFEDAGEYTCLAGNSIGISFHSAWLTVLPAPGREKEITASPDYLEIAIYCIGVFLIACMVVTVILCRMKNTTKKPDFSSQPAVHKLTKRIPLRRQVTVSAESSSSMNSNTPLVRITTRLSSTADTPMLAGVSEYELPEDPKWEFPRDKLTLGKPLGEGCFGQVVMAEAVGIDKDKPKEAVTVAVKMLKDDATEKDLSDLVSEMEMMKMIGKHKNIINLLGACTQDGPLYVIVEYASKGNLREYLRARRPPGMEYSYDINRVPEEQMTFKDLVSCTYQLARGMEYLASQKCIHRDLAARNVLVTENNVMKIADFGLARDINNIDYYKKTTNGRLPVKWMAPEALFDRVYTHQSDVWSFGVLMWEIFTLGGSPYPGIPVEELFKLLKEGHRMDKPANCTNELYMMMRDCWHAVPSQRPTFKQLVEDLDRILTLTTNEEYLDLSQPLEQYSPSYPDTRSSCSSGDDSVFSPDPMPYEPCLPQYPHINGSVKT
Procedure, shortened: as §1

EGFR (ErbB1) = biological target: T12, EGFR (ErbB1) (Homo sapiens, UniProt P00533); assay: In vitro kinase assay (Z′-LYTE); assay type: biochemical; details: read-out: % of inhibition of the kinase compared to the control
T12 construct: purchased Invitrogen
Procedure, shortened: as §1

HuH6 Clone 5 = assay: In vitro cell proliferation assay (MTT); assay type: cell-based; details: HUH-6-clone5, 72 h
Procedure, shortened: (§2)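 Growth is assessed with the tetrazolium dye MTT following a 72 hr incubation with compound spanning 10 nM up to 3 μM, each dose tested twice on 5×10^3 plated cells per well.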

BxPC-3 = assay: In vitro cell proliferation assay (MTT); assay type: cell-based; details: Homo sapiens, BXPC-3, 72 h
Procedure, shortened: as §2

MDA-MB-231 = assay: In vitro cell proliferation assay (MTT); assay type: cell-based; details: Homo sapiens, MDA-MB-231, 72 h
Procedure, shortened: as §2

HT29 = assay: In vitro cell proliferation assay (MTT); assay type: cell-based; details: Homo sapiens, HT-29, 72 h
Procedure, shortened: as §2

HepG2 = assay: In vitro cell proliferation assay (MTT); assay type: cell-based; details: Homo sapiens, HepG2, 72 h
Procedure, shortened: as §2

PC-3 = assay: In vitro cell proliferation assay (MTT); assay type: cell-based; details: Homo sapiens, PC-3, 72 h
Procedure, shortened: as §2

A549 = assay: In vitro cell proliferation assay (MTT); assay type: cell-based; details: Homo sapiens, A549, 72 h
Procedure, shortened: as §2

HuH7 = assay: In vitro cell proliferation assay (MTT); assay type: cell-based; details: Homo sapiens, Huh-7, 72 h
Procedure, shortened: as §2

HUVEC = assay: In vitro cell proliferation assay (MTT); assay type: cell-based; details: Homo sapiens, 72 h
Experimental: Cancer cell lines (5×10^3 cells per well) or HUVEC (1×10^4 cells per well) or HRMEC (1×10^4 cells per well) were distributed in 96-well plates and incubating in duplicate with escalating concentrations (10 nM to 3 μM) of compounds for 72 hr. Cell proliferation was measured using MTT (3 [4,5-dimethylthiazol-2-yl]-2,5-diphenyltetrazolium bromide).

HuCCT1 = assay: In vitro cell proliferation assay (MTT); assay type: cell-based; details: Homo sapiens, HuCCT-1, 72 h
Procedure, shortened: as §2

H1975 = assay: In vitro cell proliferation assay (MTT); assay type: cell-based; details: Homo sapiens, NCI-H1975, 72 h
Procedure, shortened: as §2

HeLa = assay: In vitro cell proliferation assay (MTT); assay type: cell-based; details: Homo sapiens, 72 h
Procedure, shortened: as §2

| Compound | inhibition at 0.1 µM (FGFR1) | inhibition at 0.1 µM (SRC) | inhibition at 0.1 µM (EGFR (ErbB1) T790M L858R) | inhibition at 0.1 µM (BRAF) | inhibition at 0.1 µM (VEGFR1) | inhibition at 0.1 µM (PDGFRB) | inhibition at 0.1 µM (PDGFRA (PDGFR alpha)) | inhibition at 0.1 µM (KDR (VEGFR2)) | inhibition at 10 µM (ABL) | inhibition at 10 µM (ABL T315I) | inhibition at 0.1 µM (FGFR2) | inhibition at 0.1 µM (EGFR (ErbB1)) | EC50 (BxPC-3) | EC50 (MDA-MB-231) | EC50 (HT29) | EC50 (HepG2) | EC50 (A549) | EC50 (H1975) | EC50 (HUVEC) | EC50 (HuCCT1) | also measured |
| --- | --- | --- | --- | --- | --- | --- | --- | --- | --- | --- | --- | --- | --- | --- | --- | --- | --- | --- | --- | --- | --- |
| COC(=O)c1cc2cc(NCc3cc(NC(=O)c4ccc(CN5CCNCC5)c(C(F)(F)F)c4)ccc3C)cnc2[nH]1 [OR0613] | ≥ 50% | ≥ 50% | ≥ 50% | ≥ 50% | < 50% | < 50% | ≥ 50% | ≥ 50% | ≥ 50% | ≥ 50% | ≥ 50% | ≥ 50% | 0.1 to 1 µM | ≤ 0.1 µM | ≤ 0.1 µM | ≤ 0.1 µM | 0.1 to 1 µM | 0.1 to 1 µM | ≤ 0.1 µM | ≥ 1 µM | EC50 (HuH6 Clone 5): ≥ 1 µM; EC50 (PC-3): ≥ 1 µM; EC50 (HuH7): 0.1 to 1 µM |
| COC(=O)c1cc2cc(NCc3cc(NC(=O)c4ccc(Cn5cnc(C)c5)c(C(F)(F)F)c4)ccc3C)cnc2[nH]1 [OR0639] | < 50% | < 50% | < 50% | ≥ 50% | < 50% | < 50% | ≥ 50% | ≥ 50% | ≥ 50% | ≥ 50% | < 50% | ≥ 50% | 0.1 to 1 µM | 0.1 to 1 µM | 0.1 to 1 µM | 0.1 to 1 µM | 0.1 to 1 µM | ≥ 1 µM | 0.1 to 1 µM | ≥ 1 µM | EC50 (PC-3): ≥ 1 µM |
| COC(=O)c1cc2cc(NCc3cc(NC(=O)c4cc(CN5CCN(C)CC5)cc(C(F)(F)F)c4)ccc3C)cnc2[nH]1 [OR0699] | – | ≥ 50% | < 50% | ≥ 50% | – | – | ≥ 50% | ≥ 50% | – | – | < 50% | ≥ 50% | ≤ 0.1 µM | 0.1 to 1 µM | ≤ 0.1 µM | 0.1 to 1 µM | ≤ 0.1 µM | 0.1 to 1 µM | 0.1 to 1 µM | 0.1 to 1 µM | EC50 (HuH6 Clone 5): ≥ 1 µM; EC50 (HeLa): 0.1 to 1 µM; EC50 (HuH7): 0.1 to 1 µM |
| COC(=O)c1cc2cc(NC(=O)c3cc(NC(=O)c4cncc(C(F)(F)F)c4)ccc3C)cnc2[nH]1 [OR0745] | – | ≥ 50% | < 50% | ≥ 50% | – | – | ≥ 50% | < 50% | – | – | < 50% | < 50% | – | 0.1 to 1 µM | 0.1 to 1 µM | 0.1 to 1 µM | 0.1 to 1 µM | ≥ 1 µM | 0.1 to 1 µM | ≥ 1 µM | EC50 (HuH6 Clone 5): ≥ 1 µM; EC50 (HeLa): ≥ 1 µM; EC50 (HuH7): 0.1 to 1 µM |
| CNC(=O)c1cc(Oc2ccc(NC(=O)Nc3ccc(Cl)c(C(F)(F)F)c3)cc2)ccn1 [Sorafenib, reference compound] | – | – | – | – | – | – | – | – | – | – | – | – | – | – | – | ≥ 1 µM | – | – | 0.1 to 1 µM | ≥ 1 µM | EC50 (HuH6 Clone 5): ≥ 1 µM; EC50 (HuH7): ≥ 1 µM |

More lines, main results first:

| inhibition at 0.1 µM (FGFR1) | inhibition at 0.1 µM (SRC) | inhibition at 0.1 µM (EGFR (ErbB1) T790M L858R) | inhibition at 0.1 µM (BRAF) | inhibition at 0.1 µM (VEGFR1) | inhibition at 0.1 µM (PDGFRB) | inhibition at 0.1 µM (PDGFRA (PDGFR alpha)) | inhibition at 0.1 µM (KDR (VEGFR2)) | inhibition at 10 µM (ABL) | inhibition at 10 µM (ABL T315I) | inhibition at 0.1 µM (FGFR2) | inhibition at 0.1 µM (EGFR (ErbB1)) | EC50 (BxPC-3) | EC50 (MDA-MB-231) | EC50 (HT29) | EC50 (HepG2) | EC50 (A549) | EC50 (H1975) | Compound | EC50 (HUVEC) | EC50 (HuCCT1) | also measured |
| --- | --- | --- | --- | --- | --- | --- | --- | --- | --- | --- | --- | --- | --- | --- | --- | --- | --- | --- | --- | --- | --- |
| < 50% | ≥ 50% | < 50% | ≥ 50% | < 50% | ≥ 50% | ≥ 50% | ≥ 50% | ≥ 50% | < 50% | < 50% | ≥ 50% | 0.1 to 1 µM | ≤ 0.1 µM | ≥ 1 µM | ≤ 0.1 µM | 0.1 to 1 µM | ≥ 1 µM | COC(=O)c1cc2cc(NCc3cc(NC(=O)c4cncc(C(F)(F)F)c4)ccc3C)cnc2[nH]1 [OR0604] | 0.1 to 1 µM | ≥ 1 µM | EC50 (HuH6 Clone 5): ≥ 1 µM; EC50 (PC-3): ≥ 1 µM; EC50 (HuH7): 0.1 to 1 µM |
| < 50% | ≥ 50% | < 50% | < 50% | < 50% | < 50% | ≥ 50% | < 50% | ≥ 50% | ≥ 50% | < 50% | ≥ 50% | 0.1 to 1 µM | ≤ 0.1 µM | 0.1 to 1 µM | ≤ 0.1 µM | 0.1 to 1 µM | 0.1 to 1 µM | COC(=O)c1cc2cc(NCc3cc(NC(=O)c4cccc(C(F)(F)F)c4)ccc3C)cnc2[nH]1 [OR0606] | ≤ 0.1 µM | – | EC50 (PC-3): ≥ 1 µM; EC50 (HeLa): ≥ 1 µM |
| < 50% | ≥ 50% | < 50% | < 50% | < 50% | < 50% | ≥ 50% | < 50% | ≥ 50% | ≥ 50% | < 50% | < 50% | ≤ 0.1 µM | ≤ 0.1 µM | 0.1 to 1 µM | ≤ 0.1 µM | 0.1 to 1 µM | 0.1 to 1 µM | COC(=O)c1cc2cc(NCc3cc(NC(=O)c4cccc(OC(F)(F)F)c4)ccc3C)cnc2[nH]1 [OR0611] | 0.1 to 1 µM | – | EC50 (PC-3): ≥ 1 µM; EC50 (HeLa): ≥ 1 µM |
